Measurements taken from patent US7045495B2 (Sloan-Kettering Institute for Cancer Research, priority 1996, dated 2006).
Where two headings read alike, the source gives them in different places.

How the values were obtained:
[1] = tested on: MKN-74 cells; assay: apoptosis by QFM, Hoechst-33258 staining; type: cell-based, human; settings: for induction of apoptosis (condensed chromatin, 400 cells): MKN-74, UCN-01 7.5 to 10 μM; for Percent Apoptosis: 24 h continuous (single drug) or concomitant, flavopiridol 300 nM, paclitaxel 50 μM, carboplatin
Description: (§1) Apoptosis was measured by two different methods: (i) Quantitative fluorescent microscopy (QFM) of nuclear changes induced by apoptosis, as determined by bisbenzimide trihydrochloride (Hoescht-33258) staining of nuclear chromatin (15), and (ii) a terminal deoxynucleotidyl transferase (TdT) assay that labels the 3′-OH ends of DNA fragments produced in apoptotic cells (16). […] MMC was diluted in water. A stock safingol solution was constituted in DMSO and was subsequently diluted at least 1:100 in media for all experiments. […] For QFM determinations, the cells were fixed in 3% paraformaldehyde and incubated at room temperature for 10 minutes. The fixative was removed and the cells were washed with 1×PBS, resuspended in 20 μl 1×PBS containing only 8 μg/ml of bisbenzimide trihydrochloride (Hoechst #33258), and incubated at room temperature for 15 minutes. Aliquots of the cells (10 μl) were placed on glass slides coated with 3-amino-propyl-triethoxysilane, and duplicate samples of 500 cells each were counted and scored for the incidence of apoptotic chromatin condensation using an Olympus BH-2 fluorescence microscope equipped with a BH2-DM2U2UV Dich. Mirror Cube filter (Olympus, Lake Success, N.Y.). For the TdT assays, the ApopTag Kit (Oncor, Gaithersburg, Md.) was used. This method employs a fluoresceinated antidigoxigenin antibody directed against nucleotides of digoxigenin-11-dUTP (d-dUTP) which are catalytically added to the 3-ends fragmented DNA by TdT. Briefly, 1–2×10^6 cells were washed and fixed with 1% paraformaldehyde. The fixed cells were incubated in a reaction mixture containing TdT and d-dUTP for 30 minutes at 37° C. Stop/wash buffer was added, and the cells were resuspended in 100 μl of fluorescinated anti-digoxigenin antibody for 30 minutes at room temperature. The cells were then washed with 0.1% Triton X-100 and counterstained with propidium iodide (PI) solution. Green (d-dUTP labeled DNA strand breaks) and red (PI staining for total DNA content) fluorescence of individual cells were measured on a FACScan flow cytometer (Becton Dickinson, San Jose, Calif.). The resulting bivariate plots enabled the detection of apoptotic events within the cell cycle. The R1 cursor was set using the control specimen to define normal levels of green fluorescence (i.e., basal levels of apoptosis). Cells with fluorescence above the R, cursor were considered apoptotic. The data from 10,000 cells were collected and analyzed using CellFit and LYSYS software (Becton Dickinson).
Apoptosis was again measured by QFM staining.
(§2) Induction of apoptosis was estimated by counting the frequency of condensed nuclear chromatin with Hoechst-33258 stain in duplicate samples of 400 cells.
For these studies apoptosis was measured by quantitative fluorescent microscopy (QFM) determination with bisbenzimide trihydrochloride stain (Hoescht-33258) for condensed nuclear chromatin characteristic of apoptotic cells.
For QFM determinations 500 cells were counted and scored for the incidence of apoptotic chromatin changes under an Olympus BH-2 fluorescence microscope in duplicate samples, ±SD, using a BH2-DM2U2UV Dich. Mirror Cube filter.
To study this further applicants elected to examine five bis-indolylmaleimides with various potencies against PKC. […] The induction of apoptosis was estimated by counting the frequency of condensed nuclear chromatin with Hoechst-33258 stain in duplicate samples of 400 cells.

[2] = tested on: PKC; settings: cited from earlier work
[3] = tested on: mammary carcinomas; assay: tumor size in mice bearing mammary carcinomas; type: in vivo; settings: for increase in tumor size by day #6: bryostatin 60 μg/kg followed in 12 hours by Mitomycin-C 3 μg/kg or Taxol 50 μg/kg, preliminary
[4] = tested on: MKN-74; assay: cell viability, trypan blue dye exclusion; type: cell-based, human; settings: 24 hours, single drug or concomitant; bryostatin 1 μM, Mitomycin-C 1 μg/ml, Taxol 50 μM, Cisplatin 50 μM
Text: Recently our laboratory has studied the effects of combining bryostatin with chemotherapy both in vitro and in vivo against solid tumors. For our in vitro studies, we have been using the human gastric cancer cell line MKN-74. Cytotoxicity has been examined both by cell viability assays using trypan blue dye exclusion assays and by the induction of apoptosis using quantitative fluorescent microscopy.

[5] = tested on: SK-GT-2 cells; assay: apoptosis by QFM, Hoechst-33258 staining; type: cell-based, human; settings: 24 hours; for percentage of cells undergoing apoptosis (QFM): MMC 5.0 μg/ml
Description: (i) Safingol enhances MMC-induced apoptosis: SK-GT-5 cells, which have a mutated p53 gene (9), were treated with safingol in the presence or absence of MMC for 24 hours. For determination of apoptosis SK-GT-5 cells were treated according to one of several conditions: (i) no drug (control) for 24 hours, (ii) Safingol alone (50 μM) for 24 hours. (This concentration represents the highest non-toxic dose of safingol for the SK-GT-5 cells, as determined by cell proliferation studies, and slightly exceeds the safingol concentration (30 μM) which inhibits PKC enzyme activity by 50% in vitro.), (iii) Mitomycin-C alone (2.5 μg/ml) for 24 hours, (iv) Mitomycin-C alone (5 μg/ml) for 24 hours, (v) the combination of safingol (50 μM) and Mitomycin-C (2.5 μg/ml) for 24 hours, (vi) the combination of safingol (50 μM) and Mitomycin-C (5 μg/ml) for 24 hours. Apoptosis was measured by quantitative fluorescent microscopy (QFM) of nuclear changes induced by apoptosis, as determined by bisbenzimide trihydrochloride (Hoescht-33258) staining of condensed nuclear chromatin (3,5). For the QFM duplicate samples of 500 cells each were counted and scored for the incidence of apoptotic chromatin condensation using an Olympus BH-2 fluorescence microscope.
(ii) UCN-01 enhances MMC-induced apoptosis: SK-GT-2 cells, which have a mutation in p53, were treated with increasing concentrations of UCN-01 in the presence or absence of a fixed dose of MMC for 24 hours.
Both UCN-01 and Flavo inhibit PKC. These drugs are cytotoxic to tumor cells and have been reported to induce apoptosis. […] In order to test this hypothesis we elected to treat gastric cancer cells, MKN-74 and SK-GT-2, as well as breast cancer cells, MDA-MB-468, with UCN-01 (7.5 to 10 μM) or Flavo (300 nM) in the presence or absence of MMC (5 μg/ml) or Taxol (50 μM) for 24 hours. Induction of apoptosis was estimated by counting the frequency of condensed nuclear chromatin with Hoechst-33258 stain in duplicate samples of 400 cells.

[6] = tested on: MDA-MB-468 breast cancer cells; assay: apoptosis by QFM, Hoechst-33258 staining; type: cell-based, human; settings: 24 hours
Description: PRELIMINARY STUDIES. […] Apoptosis was measured by quantitative fluorescent microscopy (QFM) of nuclear changes induced by apoptosis, as determined by bisbenzimide trihydrochloride (Hoescht-33258) staining of condensed nuclear chromatin (24). For the QFM duplicate samples of 500 cells each were counted and scored for the incidence of apoptotic chromatin condensation using an Olympus BH-2 fluorescence microscope.
Applicants also tested the PKC inhibitor UCN-01 (27) which is currently in phase I clinical trial at the NCI. In contrast to safingol, which inhibits PKC by binding to its regulatory domain, UCN-01 inhibits PKC at its catalytic domain. Therefore, assessment of the effect of UCN-01 on inducing apoptosis in combination with MMC on MDA-MB-468 was also performed. The QFM method to quantitate apoptosis was again used. The conditions tested were identical to those described above for safingol except UCN-01 (1 μM) was substituted for safingol in all the conditions.
as §2

[7] = tested on: metastatic breast cancer; settings: cited from earlier work
[8] = tested on: esophageal carcinoma; settings: cited from earlier work
[9] = tested on: SK-GT-5 cells; assay: apoptosis by quantitative fluorescent microscopy (QFM), Hoechst-33258 staining; type: cell-based, human; settings: FIG. 4: safingol 50 μM and/or PMA 1 ng/ml for 1 hour, then MMC 5 μg/ml or no drug 24 hours; MMC alone 24 hours
Description: as §1
For the QFM duplicate samples of 500 cells each were counted and scored for the incidence of apoptotic chromatin condensation using an Olympus BH-2 fluorescence microscope.

Structure (SMILES): CN(C)C[C@H]1CCn2c(c(C3=C(c4cn(C)c5ccccc45)C(=O)NC3=O)c3ccccc32)C1 [RO 32-0432]
- percentage of cells undergoing apoptosis (QFM) ([1]; 24 hours, RO 32-0432 1 μM, MMC): essentially no effect on inducing apoptosis
- percent induction of apoptosis, 6hrs ([1]; Ro 2 μM, MMC 1 μg/ml): 0.3%
- percent induction of apoptosis, 12hrs ([1]; Ro 2 μM, MMC 1 μg/ml): 1.5%
- percent induction of apoptosis, 24hrs ([1]; Ro 2 μM, MMC 1 μg/ml): 1.2%
- percent induction of apoptosis, 48hrs ([1]; Ro 2 μM, MMC 1 μg/ml): 5.0%
- percent induction of apoptosis, 72hrs ([1]; Ro 2 μM, MMC 1 μg/ml): 13%

Structure (SMILES): CCC/C=C/C=C/C(=O)O[C@H]1/C(=C/C(=O)OC)C[C@H]2C[C@H]([C@@H](C)O)OC(=O)C[C@H](O)C[C@@H]3C[C@H](OC(C)=O)C(C)(C)[C@](O)(C[C@@H]4C/C(=C/C(=O)OC)C[C@H](/C=C/C(C)(C)[C@]1(O)O2)O4)O3 [bryostatin]
- increase in tumor size by day #6 [3]: 80%
- tumor energy and pH (NMR) ([3]; first noted 12 to 24 hours after bryostatin): dose-dependent decrease in tumor energy and pH
- % of Cells Alive [4]: 85%

Structure (SMILES): CN[C@@H]1C[C@H]2O[C@@](C)([C@@H]1OC)n1c3ccccc3c3c4c(c5c6ccccc6n2c5c31)C(=O)N[C@H]4O [UCN-01, 7-OH-staurosporine]
- induction of apoptosis (condensed chromatin, 400 cells) ([1]; 24 hours, Taxol 50 μM): 10% ± 2
- percentage of cells undergoing apoptosis (QFM) ([5]; UCN-01 0.1 μM): 1%±0%
- percentage of cells undergoing apoptosis (QFM) ([5]; UCN-01 1 μM): 1%±0
- percentage of cells undergoing apoptosis (QFM) ([5]; UCN-01 10 μM): 21%±1%
- induction of apoptosis (condensed chromatin, 400 cells) ([5]; UCN-01 7.5 to 10 μM, MMC 5 μg/ml): 18% ± 4
- induction of apoptosis (QFM) ([6]; FIG. 10, UCN-01 1 μM, MMC 5.0 μg/ml): 20%±4
- induction of apoptosis (condensed chromatin, 400 cells) ([6]; MDA-MB-468, UCN-01 7.5 to 10 μM, MMC 5 μg/ml): 20% ± 1
- concentration range that inhibits PKC activity [2]: nanomolar concentrations

Structure (SMILES): N.N.O=C([O-])C1(C(=O)[O-])CCC1.[Pt+2] [carboplatin]
- Percent Apoptosis ([1]; MMC 1 μg/ml): 1%±1%
- Percent Apoptosis ([1]; MMC 1 μg/ml, listed as Carboplatin): 1% ± 1%

Structure (SMILES): CC(=O)O[C@H]1C(=O)[C@@]2(C)[C@H]([C@H](OC(=O)c3ccccc3)[C@]3(O)C[C@H](OC(=O)[C@H](O)[C@@H](NC(=O)c4ccccc4)c4ccccc4)C(C)=C1C3(C)C)[C@]1(OC(C)=O)CO[C@@H]1C[C@@H]2O [paclitaxel, Tax-11-en-9-one, 5 beta, 20-epoxy-1, 2 alpha, 4, 7 beta, 10 beta, 13 alpha-hexahydroxy-1,4, 10-diacetate, 2 benzoate 13-(alpha-phenylhippurate)]
- increase in tumor size by day #6 [3]: 22%
- Percent Apoptosis ([1]; MMC 1 μg/ml): 5.5%±1
- Percent Apoptosis ([1]; MMC 1 μg/ml, listed as Paclitaxel): 6% ± 1%
- % APOPTOSIS ([1]; 24 hours, FLAVO 300 nM, Taxol 50 μM, MMC 1 μg/ml, single drugs or in combination): 9%
- percent induction of apoptosis, Concomitant ([1]; 24 hours, FLAVO 300 nM, Taxol 50 μM, MMC 1 μg/ml, single drugs or together): 9% ± 1%
- induction of apoptosis (condensed chromatin, 400 cells) ([1]; 24 hours, Taxol 50 μM): 2% ± 1
- response rate ([7]; 96 hour infusion, taxane resistant population): 286
- response rates ([7]; first chemotherapy, 24 hour infusion with or without G-CSF): 56–62%
- response rate ([7]; first line, 250 mg/m^2 over 3 hour infusion): 32%
- % of Cells Alive [4]: 93%
- major responses ([8]; 250 mg/m^2 by 24 hour infusion every 21 days with G-CSF, 51 patients): 32%
- complete response ([8]; 250 mg/m^2 by 24 hour infusion, 51 patients): 2%
- median survival ([8]; in vivo): 13 months

Structure (SMILES): CCCCCCCCCCCCCC(=O)O[C@@H]1[C@@H](C)[C@@]2(O)[C@@H](C=C(CO)C[C@]3(O)C(=O)C(C)=C[C@@H]23)[C@@H]2C(C)(C)[C@]12OC(C)=O [PMA, 3-phorbol 12-myristate 13-acetate]
- percentage of cells undergoing apoptosis (QFM) [9]: essentially no effect on inducing apoptosis
